Measurements as given in paper PMC6978363, “Chaperone mediated detection of small molecule target binding in cells” (Nature Communications, 2020).

Tests used:
Assay in all cases: biochemical
Conditions in all cases: read-out: % Inhibition (at 10mM)
AKT2 = AKT2 (Homo sapiens, UniProt P31751)
Aurora_C = molecular target: T1, Aurora_C (Homo sapiens, UniProt Q9UQB9)
T1 construct: gene AURKC

CDK2/cyclinA = CDK2/cyclinA (Homo sapiens, UniProt P24941)
CDKL5 = CDKL5 (Homo sapiens, UniProt O76039)
CK2_alpha2 = molecular target: T2, CK2_alpha2 (Homo sapiens, UniProt P19784)
T2 construct: gene CSNK2A2

CamKIV = molecular target: T3, CamKIV (Homo sapiens, UniProt Q16566)
T3 construct: gene CAMK4

DCAMKL2 = molecular target: T4, DCAMKL2 (Homo sapiens, UniProt Q8N568)
T4 construct: gene DCLK2

EphA2 = EphA2 (Homo sapiens, UniProt P29317)
EphB4 = EphB4 (Homo sapiens, UniProt P54760)
FGFR2 = FGFR2 (Homo sapiens, UniProt P21802)
Sequence of FGFR2 (P21802 whole entry): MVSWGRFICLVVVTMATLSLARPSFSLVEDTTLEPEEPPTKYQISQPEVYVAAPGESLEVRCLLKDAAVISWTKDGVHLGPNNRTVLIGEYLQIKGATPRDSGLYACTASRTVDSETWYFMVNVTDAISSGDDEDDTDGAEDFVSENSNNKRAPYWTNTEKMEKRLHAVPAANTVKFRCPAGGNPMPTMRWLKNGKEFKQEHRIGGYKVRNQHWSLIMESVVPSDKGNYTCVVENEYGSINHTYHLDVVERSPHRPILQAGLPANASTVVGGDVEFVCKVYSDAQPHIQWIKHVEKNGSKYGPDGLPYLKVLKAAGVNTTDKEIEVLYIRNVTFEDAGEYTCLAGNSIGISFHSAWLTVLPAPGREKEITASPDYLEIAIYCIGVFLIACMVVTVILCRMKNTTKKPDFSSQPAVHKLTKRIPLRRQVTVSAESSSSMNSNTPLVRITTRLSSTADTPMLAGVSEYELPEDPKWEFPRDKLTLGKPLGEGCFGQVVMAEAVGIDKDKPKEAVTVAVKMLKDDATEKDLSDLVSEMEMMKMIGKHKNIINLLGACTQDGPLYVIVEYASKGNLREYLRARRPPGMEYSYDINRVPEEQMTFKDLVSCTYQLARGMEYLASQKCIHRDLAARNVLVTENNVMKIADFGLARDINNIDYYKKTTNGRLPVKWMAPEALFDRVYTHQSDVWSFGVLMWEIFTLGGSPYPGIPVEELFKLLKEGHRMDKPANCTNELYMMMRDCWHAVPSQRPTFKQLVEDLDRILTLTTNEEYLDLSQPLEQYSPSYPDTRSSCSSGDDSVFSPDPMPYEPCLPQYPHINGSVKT

Fer = Fer (Homo sapiens, UniProt P16591)
Sequence of Fer (P16591 whole entry): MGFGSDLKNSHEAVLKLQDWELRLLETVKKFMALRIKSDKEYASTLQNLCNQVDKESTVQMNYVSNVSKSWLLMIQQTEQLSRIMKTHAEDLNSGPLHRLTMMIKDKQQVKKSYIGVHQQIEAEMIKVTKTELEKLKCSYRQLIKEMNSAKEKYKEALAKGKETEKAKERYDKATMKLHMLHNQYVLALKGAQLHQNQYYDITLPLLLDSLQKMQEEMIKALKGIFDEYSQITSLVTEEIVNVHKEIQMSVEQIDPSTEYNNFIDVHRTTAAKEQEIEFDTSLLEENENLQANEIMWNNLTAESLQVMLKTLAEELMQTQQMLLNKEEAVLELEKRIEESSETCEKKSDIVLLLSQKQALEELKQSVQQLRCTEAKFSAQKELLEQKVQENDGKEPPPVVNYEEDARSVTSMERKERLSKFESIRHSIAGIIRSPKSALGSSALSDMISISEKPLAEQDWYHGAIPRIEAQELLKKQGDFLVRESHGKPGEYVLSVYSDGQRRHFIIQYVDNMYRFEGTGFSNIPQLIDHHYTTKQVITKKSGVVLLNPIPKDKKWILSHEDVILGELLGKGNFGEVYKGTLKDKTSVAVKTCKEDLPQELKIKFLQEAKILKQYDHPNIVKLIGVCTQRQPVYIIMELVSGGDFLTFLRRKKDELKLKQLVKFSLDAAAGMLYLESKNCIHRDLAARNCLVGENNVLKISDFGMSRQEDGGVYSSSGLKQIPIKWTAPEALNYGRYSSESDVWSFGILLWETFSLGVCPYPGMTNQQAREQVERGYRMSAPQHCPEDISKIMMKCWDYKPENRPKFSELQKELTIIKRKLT

Frk = Frk (Homo sapiens, UniProt P42685)
GCK = molecular target: T5, GCK (Homo sapiens, UniProt Q12851)
T5 construct: gene MAP4K2

GRK4 = GRK4 (Homo sapiens, UniProt P32298)
Sequence of GRK4 (P32298 whole entry): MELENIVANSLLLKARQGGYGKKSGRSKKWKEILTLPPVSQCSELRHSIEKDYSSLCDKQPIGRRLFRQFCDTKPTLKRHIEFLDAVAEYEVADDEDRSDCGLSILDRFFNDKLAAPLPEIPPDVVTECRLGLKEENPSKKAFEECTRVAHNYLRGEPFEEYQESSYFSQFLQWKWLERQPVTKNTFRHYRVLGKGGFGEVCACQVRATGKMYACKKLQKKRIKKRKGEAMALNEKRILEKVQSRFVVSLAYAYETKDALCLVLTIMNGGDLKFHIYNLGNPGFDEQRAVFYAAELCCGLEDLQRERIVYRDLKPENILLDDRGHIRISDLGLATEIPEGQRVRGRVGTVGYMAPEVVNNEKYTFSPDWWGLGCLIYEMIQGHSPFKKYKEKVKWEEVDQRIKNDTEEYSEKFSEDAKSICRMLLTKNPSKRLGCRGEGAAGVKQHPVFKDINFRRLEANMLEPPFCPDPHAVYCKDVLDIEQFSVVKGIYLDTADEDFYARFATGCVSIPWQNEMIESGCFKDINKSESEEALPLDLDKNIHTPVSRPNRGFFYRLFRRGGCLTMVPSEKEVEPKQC

HIPK3 = HIPK3 (Homo sapiens, UniProt Q9H422)
JAK3 = JAK3 (Homo sapiens, UniProt P52333)
Sequence of JAK3 (P52333 whole entry): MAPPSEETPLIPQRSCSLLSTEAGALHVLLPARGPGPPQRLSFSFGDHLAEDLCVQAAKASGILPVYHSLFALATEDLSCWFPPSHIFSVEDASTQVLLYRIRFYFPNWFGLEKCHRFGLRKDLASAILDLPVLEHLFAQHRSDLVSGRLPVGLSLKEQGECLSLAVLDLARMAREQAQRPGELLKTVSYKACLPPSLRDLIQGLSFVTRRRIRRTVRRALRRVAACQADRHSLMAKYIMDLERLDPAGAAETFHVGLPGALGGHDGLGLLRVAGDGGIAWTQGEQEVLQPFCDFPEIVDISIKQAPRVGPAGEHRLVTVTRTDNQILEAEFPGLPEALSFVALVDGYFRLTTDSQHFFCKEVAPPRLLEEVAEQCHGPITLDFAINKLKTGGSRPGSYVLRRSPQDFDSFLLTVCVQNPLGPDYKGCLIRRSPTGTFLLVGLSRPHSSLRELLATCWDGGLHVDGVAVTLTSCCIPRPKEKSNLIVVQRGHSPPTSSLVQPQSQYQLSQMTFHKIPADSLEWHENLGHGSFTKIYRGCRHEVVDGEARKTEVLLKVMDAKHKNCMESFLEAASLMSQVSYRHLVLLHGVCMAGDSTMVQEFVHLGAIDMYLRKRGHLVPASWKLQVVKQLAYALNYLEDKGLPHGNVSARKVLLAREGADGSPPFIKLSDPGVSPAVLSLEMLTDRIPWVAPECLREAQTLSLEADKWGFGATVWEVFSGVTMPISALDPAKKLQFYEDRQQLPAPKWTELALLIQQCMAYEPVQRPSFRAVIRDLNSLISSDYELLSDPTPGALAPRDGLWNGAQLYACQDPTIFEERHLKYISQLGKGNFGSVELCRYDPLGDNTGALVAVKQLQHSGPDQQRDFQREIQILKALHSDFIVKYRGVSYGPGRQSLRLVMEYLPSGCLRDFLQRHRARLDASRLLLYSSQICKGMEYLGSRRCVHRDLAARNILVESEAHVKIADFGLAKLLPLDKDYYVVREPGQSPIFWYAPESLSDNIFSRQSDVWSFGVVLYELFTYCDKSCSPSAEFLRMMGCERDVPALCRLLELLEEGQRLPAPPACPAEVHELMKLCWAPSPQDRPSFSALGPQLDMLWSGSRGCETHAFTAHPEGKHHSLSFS

MARK1 = MARK1 (Homo sapiens, UniProt Q9P0L2)
MSSK1 = molecular target: T6, MSSK1 (Homo sapiens, UniProt Q9UPE1)
T6 construct: gene SRPK3

MYLK2(skMLCK) = MYLK2(skMLCK) (Homo sapiens, UniProt Q9H1R3)
MuSK = MuSK (Homo sapiens, UniProt O15146)
NEK9 = NEK9 (Homo sapiens, UniProt Q8TD19)
PDK1(direct) = molecular target: T7, PDK1(direct) (Homo sapiens, UniProt O15530)
T7 construct: gene PDPK1; direct

PEAK1 = PEAK1 (Homo sapiens, UniProt Q9H792)
PKD1 = molecular target: T8, PKD1 (Homo sapiens, UniProt Q15139)
T8 construct: gene PRKD1

PKG1_alpha = molecular target: T9, PKG1_alpha (Homo sapiens, UniProt Q13976)
T9 construct: gene PRKG1; isoform alpha

PKG2 = molecular target: T10, PKG2 (Homo sapiens, UniProt Q13237)
T10 construct: gene PRKG2

PLK3 = PLK3 (Homo sapiens, UniProt Q9H4B4)
PRKAA1_B2_G3 = molecular target: T11, PRKAA1_B2_G3 (Homo sapiens, UniProt Q13131)
T11 construct: gene PRKAA1

PRKAA2_B1_G2 = molecular target: T12, PRKAA2_B1_G2 (Homo sapiens, UniProt P54646)
T12 construct: gene PRKAA2

RSK1 = molecular target: T13, RSK1 (Homo sapiens, UniProt Q15418)
T13 construct: gene RPS6KA1
T13 sequence (Q15418 whole entry): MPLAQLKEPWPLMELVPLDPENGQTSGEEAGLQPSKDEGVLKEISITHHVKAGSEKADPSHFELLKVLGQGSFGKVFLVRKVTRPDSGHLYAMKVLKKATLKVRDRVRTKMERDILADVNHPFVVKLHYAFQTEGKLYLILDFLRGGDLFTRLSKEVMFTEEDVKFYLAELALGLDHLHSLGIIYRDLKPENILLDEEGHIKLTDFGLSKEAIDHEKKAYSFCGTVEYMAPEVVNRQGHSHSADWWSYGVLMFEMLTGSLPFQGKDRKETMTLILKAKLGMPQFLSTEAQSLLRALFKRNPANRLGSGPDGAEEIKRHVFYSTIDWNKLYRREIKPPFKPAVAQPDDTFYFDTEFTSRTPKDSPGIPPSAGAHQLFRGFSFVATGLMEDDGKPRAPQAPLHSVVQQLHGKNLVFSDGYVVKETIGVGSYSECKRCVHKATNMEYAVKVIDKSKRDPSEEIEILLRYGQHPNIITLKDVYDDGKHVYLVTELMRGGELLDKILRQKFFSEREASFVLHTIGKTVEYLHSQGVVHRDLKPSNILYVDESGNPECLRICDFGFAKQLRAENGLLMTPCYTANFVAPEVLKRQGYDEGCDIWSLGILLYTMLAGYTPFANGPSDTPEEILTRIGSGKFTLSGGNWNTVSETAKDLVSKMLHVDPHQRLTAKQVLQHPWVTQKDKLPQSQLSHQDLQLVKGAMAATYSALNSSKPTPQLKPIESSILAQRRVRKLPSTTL

RSK4 = molecular target: T14, RSK4 (Homo sapiens, UniProt Q9UK32)
T14 construct: gene RPS6KA6

Ron = molecular target: T15, Ron (Homo sapiens, UniProt Q04912)
T15 construct: gene MST1R

Src = Src (Homo sapiens, UniProt P12931)
TNK1 = TNK1 (Homo sapiens, UniProt Q13470)
TrkA = molecular target: T16, TrkA (Homo sapiens, UniProt P04629)
T16 construct: gene NTRK1

p38_alpha(direct) = molecular target: T17, p38_alpha(direct) (Homo sapiens, UniProt Q16539)
T17 construct: gene MAPK14; direct

p38_beta = molecular target: T18, p38_beta (Homo sapiens, UniProt Q15759)
T18 construct: gene MAPK11
T18 sequence (Q15759 whole entry): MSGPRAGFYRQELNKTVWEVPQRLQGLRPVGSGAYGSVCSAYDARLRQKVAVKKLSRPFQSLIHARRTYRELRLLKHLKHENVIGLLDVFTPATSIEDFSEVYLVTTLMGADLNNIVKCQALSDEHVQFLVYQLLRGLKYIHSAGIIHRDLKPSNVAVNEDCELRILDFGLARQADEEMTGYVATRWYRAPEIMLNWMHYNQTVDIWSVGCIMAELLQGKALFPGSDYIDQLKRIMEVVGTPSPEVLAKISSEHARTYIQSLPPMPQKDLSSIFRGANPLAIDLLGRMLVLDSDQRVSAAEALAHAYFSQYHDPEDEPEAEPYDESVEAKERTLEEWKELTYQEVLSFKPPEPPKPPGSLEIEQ

T1 sequence (Q9UQB9 whole entry): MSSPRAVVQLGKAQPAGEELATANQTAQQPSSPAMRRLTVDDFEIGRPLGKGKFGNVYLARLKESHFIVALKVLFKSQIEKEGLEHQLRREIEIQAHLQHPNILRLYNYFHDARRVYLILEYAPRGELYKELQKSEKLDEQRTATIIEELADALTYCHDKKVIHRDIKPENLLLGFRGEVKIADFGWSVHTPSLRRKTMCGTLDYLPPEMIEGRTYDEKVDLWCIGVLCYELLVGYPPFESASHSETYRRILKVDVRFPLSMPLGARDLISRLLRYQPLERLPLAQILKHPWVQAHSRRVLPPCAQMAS

Work on `CC(C)(O)CC(=O)NCCn1ccc2ncnc(Nc3ccc(Oc4cccc(C(F)(F)F)c4)c(Cl)c3)c21` [TAK-285] yielded an inhibition (AKT2) of 5.5%, an inhibition (Aurora_C) of 22.5% and an inhibition (CDK2/cyclinA) of 4.5%. It also gave an inhibition (CDKL5) of 8.5%, an inhibition (CK2_alpha2) of 6.5% and an inhibition (CamKIV) of 6.5%. It also gave an inhibition (DCAMKL2) of -9.5%, an inhibition (EphA2) of 7.5% and an inhibition (EphB4) of 8%. It also gave an inhibition (FGFR2) of 2%, an inhibition (Fer) of 12.5% and an inhibition (Frk) of 4.5%. The inhibition (GCK) was 6.5%, the inhibition (GRK4) was -11.5% and the inhibition (HIPK3) was 0%. It also gave an inhibition (JAK3) of 2%, an inhibition (MARK1) of 10% and an inhibition (MSSK1) of 5%. For the same molecule, the inhibition (MYLK2(skMLCK)) was -3%, the inhibition (MuSK) was 17.5% and the inhibition (NEK9) was 0%. It also gave an inhibition (PDK1(direct)) of 9%, an inhibition (PEAK1) of 11% and an inhibition (PKD1) of 76%. The inhibition (PKG1_alpha) was 0%, the inhibition (PKG2) was -11% and the inhibition (PLK3) was -8.5%. The inhibition (PRKAA1_B2_G3) was 0.5%, the inhibition (PRKAA2_B1_G2) was 4.5% and the inhibition (RSK1) was 14.5%. For the same molecule, the inhibition (RSK4) was 2.5%, the inhibition (Ron) was 28% and the inhibition (Src) was 37.5%. For the same molecule, the inhibition (TNK1) was 12%, the inhibition (TrkA) was 29% and the inhibition (p38_alpha(direct)) was 4%. The inhibition (p38_beta) was 1%.
